From PMC12732972, “Bifunctional BODIPY-Clioquinol Copper Chelator with Multiple Anti-AD Properties” (International Journal of Molecular Sciences, 2025)

Molecular target: T1, beta amyloid (Aβ42) (Homo sapiens, UniProt P05067)
T1 construct: gene APP; synthetic peptide of 42 amino acids β-amyloid Aβ42 (monomers)
Assay: ITC with Aβ[…] monomers (supported by fluorescence saturation binding with monomers and fibrils)

T1 sequence (P05067 672-713 limits assumed): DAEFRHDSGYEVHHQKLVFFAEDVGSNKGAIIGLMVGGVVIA

## CC1=C(c2nc3ccccc3s2)C(C)=[N+]2C1=C(c1ccc(OCC(=O)NCCCOc3c(I)cc(Cl)c4cccnc34)cc1)c1c(C)cc(C)n1[B-]2(F)F [BDP-CLQ, 2-(4-(2-(benzo[d]thiazol-2-yl)-5,5-difluoro-1,3,7,9-tetramethyl-5H-5λ^4,6λ^4-dipyrrolo [1,2-c:2′,1′-f][1,3,2]diazaborinin-10-yl)phenoxy)-N-(3-((5-chloro-7-iodoquinolin-8-yl)-oxy)propyl)acetamide]
  Kd: 4.08 ± 0.2 µM
